The experiment concerns P388 leukemia ip, CD2F1 mice, survival T/C. Briefly: NCI In Vivo Anticancer Drug Screen. Data for tumor model P388 Leukemia (intraperitoneal) in CD2F1 (CDF1) mice. As to conditions: endpoint: median survival time, higher = longer survival. A digest of the protocol:
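Mice carrying the transplanted tumor received test compound or vehicle. Survival was recorded in each group, and the value is the treated-group measurement divided by that of the vehicle-treated control group.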

The mark [1] stands for this setting: dose: 60.0 mg/kg/injection, schedule: Q01DX005 (ip), vehicle: saline with Tween-80.
Where [2] appears, read: dose: 120.0 mg/kg/injection, schedule: Q01DX005 (ip), vehicle: saline with Tween-80.
The mark [3] stands for this setting: dose: 240.0 mg/kg/injection, schedule: Q01DX005 (ip), vehicle: saline with Tween-80.
Where [4] appears, read: dose: 50.0 mg/kg/injection, schedule: Q01DX005 (ip), vehicle: saline with Tween-80.
Where [5] appears, read: dose: 100.0 mg/kg/injection, schedule: Q01DX005 (ip), vehicle: saline with Tween-80.
Where [6] appears, read: dose: 200.0 mg/kg/injection, schedule: Q01DX005 (ip), vehicle: saline with Tween-80.
Setting [7] is: dose: 60.0 mg/kg/injection, schedule: Q01DX005 (ip), vehicle: Klucel (hydroxypropylcellulose) (HPC).
[8] abbreviates: dose: 120.0 mg/kg/injection, schedule: Q01DX005 (ip), vehicle: Klucel (hydroxypropylcellulose) (HPC).
Where [9] appears, read: dose: 240.0 mg/kg/injection, schedule: Q01DX005 (ip), vehicle: Klucel (hydroxypropylcellulose) (HPC).
Where [10] appears, read: dose: 50.0 mg/kg/injection, schedule: Q01DX009 (ip), vehicle: saline + alcohol.
Where [11] appears, read: dose: 100.0 mg/kg/injection, schedule: Q01DX009 (ip), vehicle: saline + alcohol.

Where “and” joins values, the source holds several entries; their conditions need not be identical. Equal values may be shown once. Inconclusive results and toxic doses are left out.

This passage reports T/C results from PubChem BioAssay AID330 (DTP/NCI, 2004).

For the molecule `O=C(CNC(=O)OCc1ccccc1)NCC(=O)NC(Cc1c[nH]c2ccccc12)C(=O)O` (stereo not given), the T/C reads like this: (dose: 50.0 mg/kg/injection, schedule: Q01DX005 (ip), vehicle: suspension in saline) 99 % of control; (dose: 100.0 mg/kg/injection, schedule: Q01DX005 (ip), vehicle: suspension in saline) 97 % of control; (dose: 200.0 mg/kg/injection, schedule: Q01DX005 (ip), vehicle: suspension in saline) 105 % of control.
`N/C(CC(=O)Nc1cc(C(F)(F)F)ccc1Cl)=N\O`: the T/C by setting is: under setting [1], 108 % of control; under setting [2], 100 % of control; under setting [3], 108 % of control.
With `S=P(Oc1cc(Cl)c(Cl)cc1Cl)(N1CCN(c2cccc(Cl)c2)CC1)N1CCN(c2cccc(Cl)c2)CC1`, the T/C under setting [4] was 97 % of control, the T/C under setting [5] was 88 % of control and the T/C under setting [6] is 86 % of control.
Consider `CC(C)=CC(=O)O`, for which the T/C (dose: 50.0 mg/kg/injection, schedule: Q01DX009 (ip), vehicle: saline with Tween-80) is 99 % of control; the T/C (dose: 100.0 mg/kg/injection, schedule: Q01DX009 (ip), vehicle: saline with Tween-80) is 101 % of control; the T/C (dose: 200.0 mg/kg/injection, schedule: Q01DX009 (ip), vehicle: saline with Tween-80) was 100 % of control; the T/C (dose: 400.0 mg/kg/injection, schedule: Q01DX009 (ip), vehicle: saline with Tween-80) is 90 % of control.
Turning to `COc1cc2c(cc1OC)C(=O)CCC2`, the T/C was 105 % of control (dose: 25.0 mg/kg/injection, schedule: Q01DX009 (ip), vehicle: Klucel (hydroxypropylcellulose) (HPC)); 100 % of control (dose: 50.0 mg/kg/injection, schedule: Q01DX009 (ip), vehicle: Klucel (hydroxypropylcellulose) (HPC)); 106 % of control (dose: 100.0 mg/kg/injection, schedule: Q01DX009 (ip), vehicle: Klucel (hydroxypropylcellulose) (HPC)); 99 % of control (dose: 200.0 mg/kg/injection, schedule: Q01DX009 (ip), vehicle: Klucel (hydroxypropylcellulose) (HPC)).
As for `O=NNc1cccnc1Cl`, the T/C reads like this: (dose: 1.56 mg/kg/injection, schedule: Q01DX009 (ip), vehicle: water) 110 % of control; (dose: 3.12 mg/kg/injection, schedule: Q01DX009 (ip), vehicle: water) 102 % of control and 108 % of control; (dose: 6.25 mg/kg/injection, schedule: Q01DX009 (ip), vehicle: water) 99 % of control and 98 % of control; (dose: 12.5 mg/kg/injection, schedule: Q01DX009 (ip), vehicle: water) 107 % of control and 110 % of control; (dose: 25.0 mg/kg/injection, schedule: Q01DX009 (ip), vehicle: water) 107 % of control and 117 % of control; (dose: 50.0 mg/kg/injection, schedule: Q01DX009 (ip), vehicle: water) 105 % of control.
For the molecule `CC(C)c1oc(=O)cc2c1C(O)C1OC(=O)C3(C)C(O)C4OC4C2(C)C13` (stereo not given) (tested in a mixture with another compound), the T/C by setting is: (dose: 15.0 mg/kg/injection, schedule: Q01DX009 (ip), vehicle: saline with Tween-80) 113 % of control; (dose: 60.0 mg/kg/injection, schedule: Q01DX009 (ip), vehicle: saline with Tween-80) 123 % of control.
In the case of `Cc1cc(=O)n2c(nc3ccccc32)o1`, the T/C reads like this: under setting [7], 104 % of control; under setting [8], 104 % of control; under setting [9], 99 % of control.
Take `O=C(NC1CCCCC1(O)c1ccc([N+](=O)[O-])cc1)C(Cl)Cl` (stereo not given): the T/C (dose: 100.0 mg/kg/injection, schedule: Q04DX002 (ip), vehicle: Klucel (hydroxypropylcellulose) (HPC)) was 100 % of control and the T/C (dose: 200.0 mg/kg/injection, schedule: Q04DX002 (ip), vehicle: Klucel (hydroxypropylcellulose) (HPC)) is 100 % of control.
In the case of `O=C1OCC/C1=C/O/C=C1\CCOC1=O`, the T/C reads like this: under setting [1], 106 % of control; under setting [2], 119 % of control.
With `CCOC1(C)OC2OC(COC(C)=O)C(OC(C)=O)C(OC(N)=O)C2O1` (stereo not given), the T/C runs as follows: under setting [4], 97 % of control; under setting [5], 92 % of control; under setting [6], 92 % of control.
For `CCOc1ccc(NC(=O)C2=C(C)NC(C)=C(C(=O)Nc3ccc(OCC)cc3)C2c2cccc([N+](=O)[O-])c2)cc1`, the T/C runs as follows: (dose: 15.0 mg/kg/injection, schedule: Q01DX005 (ip), vehicle: Klucel (hydroxypropylcellulose) (HPC)) 98 % of control; (dose: 30.0 mg/kg/injection, schedule: Q01DX005 (ip), vehicle: Klucel (hydroxypropylcellulose) (HPC)) 104 % of control; under setting [7], 92 % of control and 97 % of control.
In the case of `COc1c(C)c(=O)n2c3ccccc3n(C)c2c1C#N`, the T/C is, setting by setting: under setting [1], 103 % of control; under setting [2], 107 % of control; under setting [3], 99 % of control.
Take `CCCCCCCCCCCC(=O)NCC(=O)NC1C(CO)OC(Nc2ncnc3nc[nH]c23)C(O)C1O` (stereo not given): the T/C is 93 % of control (dose: 0.06 mg/kg/injection, schedule: Q01DX009 (ip), vehicle: water); 101 % of control (dose: 0.12 mg/kg/injection, schedule: Q01DX009 (ip), vehicle: water); 103 % of control (dose: 0.13 mg/kg/injection, schedule: Q01DX009 (ip), vehicle: other); 113 % of control (dose: 0.25 mg/kg/injection, schedule: Q01DX009 (ip), vehicle: other); 99 % of control (dose: 0.25 mg/kg/injection, schedule: Q01DX009 (ip), vehicle: water); 121 % of control (dose: 0.5 mg/kg/injection, schedule: Q01DX009 (ip), vehicle: other). Also, the T/C was 99 % of control (dose: 0.5 mg/kg/injection, schedule: Q01DX009 (ip), vehicle: water); 105 % of control (dose: 1.0 mg/kg/injection, schedule: Q01DX009 (ip), vehicle: water); 100 % of control and 86 % of control (dose: 2.0 mg/kg/injection, schedule: Q01DX009 (ip), vehicle: other); 124 % of control (dose: 2.0 mg/kg/injection, schedule: Q01DX009 (ip), vehicle: water).
Regarding `S=C(NC12CC3CC(CC(C3)C1)C2)[NH][Sn]([c]1ccccc1)([c]1ccccc1)[c]1ccccc1`, the T/C (dose: 0.78 mg/kg/injection, schedule: Q01DX009 (ip), vehicle: saline) was 92 % of control; the T/C (dose: 1.56 mg/kg/injection, schedule: Q01DX009 (ip), vehicle: saline) was 96 % of control; the T/C (dose: 3.13 mg/kg/injection, schedule: Q01DX009 (ip), vehicle: saline) is 100 % of control; the T/C (dose: 12.5 mg/kg/injection, schedule: Q01DX009 (ip), vehicle: saline with Tween-80) is 117 % of control.
On to `COC1=C(OC)C(=O)C(CC=C(C)C)=C(C)C1=O`, for which the T/C by setting is: (dose: 12.5 mg/kg/injection, schedule: Q01DX009 (ip), vehicle: saline + alcohol) 118 % of control; (dose: 25.0 mg/kg/injection, schedule: Q01DX009 (ip), vehicle: saline + alcohol) 104 % of control and 110 % of control; under setting [10], 103 % of control and 105 % of control; under setting [11], 151 % of control.
For `Cc1ccc(C(=O)Cc2nc(C#N)c(C#N)nc2CC(=O)c2ccc(C)cc2)cc1`, the T/C under setting [1] is 112 % of control and the T/C under setting [2] is 120 % of control.
In the case of `CC(=O)OCC1OC(SP(c2ccccc2)c2ccccc2)C(OC(C)=O)C(OC(C)=O)C1OC(C)=O` (stereo not given), the T/C is, setting by setting: under setting [10], 116 % of control; under setting [11], 118 % of control; (dose: 200.0 mg/kg/injection, schedule: Q01DX009 (ip), vehicle: saline + alcohol) 108 % of control.
For `CC(C)COC(=O)NC1c2ccccc2Oc2ccccc21`, the T/C reads like this: under setting [4], 95 % of control; under setting [5], 93 % of control; under setting [6], 89 % of control.
For `CCOC1(C)Oc2cc3c(cc2C(c2cc(OC)c(OC)c(OC)c2)C1C)OCO3` (stereo not given), the T/C is, setting by setting: under setting [7], 96 % of control; under setting [8], 100 % of control; under setting [9], 98 % of control.
For the molecule `O=C(c1ccccc1)C(CN1CCOCC1)CN1CCOCC1`, the T/C runs as follows: (dose: 50.0 mg/kg/injection, schedule: Q01DX009 (ip), vehicle: saline) 119 % of control; (dose: 100.0 mg/kg/injection, schedule: Q01DX009 (ip), vehicle: saline) 116 % of control.
As to `NC(=O)c1c(N)nn2c(-c3ccccc3)cc(-c3ccccc3)cc12`, the T/C is 86 % of control (dose: 100.0 mg/kg/injection, schedule: Q01DX001 (ip), vehicle: Klucel (hydroxypropylcellulose) (HPC)) and 94 % of control (dose: 400.0 mg/kg/injection, schedule: Q01DX001 (ip), vehicle: Klucel (hydroxypropylcellulose) (HPC)).
As for `Nc1nc(I)c2ncn(C3OC(CO)C(O)C3O)c2n1` (stereo not given), the T/C runs as follows: under setting [4], 98 % of control; under setting [5], 92 % of control; under setting [6], 96 % of control.
On the same counts, the results for `O=C1CC2C(=O)NC(=O)C2C(=O)N1` (stereo not given) are 104 % of control, 101 % of control and 99 % of control.
